Experimental data published in PubChem BioAssay AID1918947 (Molecular Pharmacology Branch, DTP, NCI, 2023).

System: A498 complex spheroid viability
Assay: Anticancer human tumor A498 cell line growth inhibition;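 further: spheroids exposed to agents for seven days before readout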;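 on viability, T/C: 100% = DMSO vehicle-treated spheroids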
Details: for IC50: curve of first compound; for viability, T/C: stronger effect = lower value
How it was run: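 Drug combinations with the LSD1 inhibitor iadademstat tested on tumor cells co-cultured as spheroids with endothelial cells and mesenchymal stem cells. Concentrations descended in half-log increments from clinical Cmax or 10 microM.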

[1] = second compound 0.1 µM, first compound 0.00316 µM
[2] = second compound 0.1 µM, first compound 0.01 µM
[3] = second compound 0.1 µM, first compound 0.0316 µM
[4] = second compound 0.1 µM, first compound 0.1 µM
[5] = second compound 0.316 µM, first compound 0.00316 µM
[6] = second compound 0.316 µM, first compound 0.01 µM
[7] = second compound 0.316 µM, first compound 0.0316 µM
[8] = second compound 0.316 µM, first compound 0.1 µM
[9] = second compound 1 µM, first compound 0.00316 µM
[10] = second compound 1 µM, first compound 0.01 µM
[11] = second compound 1 µM, first compound 0.0316 µM
[12] = second compound 1 µM, first compound 0.1 µM
[13] = second compound 3.16 µM, first compound 0.00316 µM
[14] = second compound 3.16 µM, first compound 0.01 µM
[15] = second compound 3.16 µM, first compound 0.0316 µM
[16] = second compound 3.16 µM, first compound 0.1 µM
[17] = second compound 10 µM, first compound 0.00316 µM
[18] = second compound 10 µM, first compound 0.01 µM
[19] = second compound 10 µM, first compound 0.0316 µM
[20] = second compound 10 µM, first compound 0.1 µM
[21] = second compound 0.1 µM, first compound 0.316 µM
[22] = second compound 0.1 µM, first compound 1 µM
[23] = second compound 0.316 µM, first compound 0.316 µM
[24] = second compound 0.316 µM, first compound 1 µM
[25] = second compound 1 µM, first compound 0.316 µM
[26] = second compound 1 µM, first compound 1 µM
[27] = second compound 3.16 µM, first compound 0.316 µM
[28] = second compound 3.16 µM, first compound 1 µM
[29] = second compound 10 µM, first compound 0.316 µM
[30] = second compound 10 µM, first compound 1 µM

Compound	IC50 (second compound 0.1 µM) [nM]	IC50 (second compound 0.316 µM) [nM]	IC50 (second compound 1 µM) [nM]	IC50 (second compound 3.16 µM) [nM]	IC50 (second compound 10 µM) [nM]	viability, T/C [1] [%]	viability, T/C [2] [%]	viability, T/C [3] [%]	viability, T/C [4] [%]	viability, T/C [5] [%]	viability, T/C [6] [%]	viability, T/C [7] [%]	viability, T/C [8] [%]	viability, T/C [9] [%]	viability, T/C [11] [%]	viability, T/C [12] [%]	viability, T/C [15] [%]	viability, T/C [16] [%]	viability, T/C [19] [%]	viability, T/C [20] [%]	further results
CC(C)CC(NC(=O)C(Cc1ccccc1)NC(=O)c1cnccn1)B(O)O (stereo not given) + NC1CCC(NC2CC2c2ccccc2)CC1	0.966	0.876	0.765	0.635	0.527	3.94	1.24	0.46	0.48	3.08	1.09	0.41	0.97	2.52	1.13	0.61	0.31	0.35	0.26	0.41	viability, T/C (second compound 0.1 µM, first compound 0.000316 µM): 82.1%; viability, T/C (second compound 0.1 µM, first compound 0.001 µM): 49%; viability, T/C (second compound 0.316 µM, first compound 0.000316 µM): 90.5%; viability, T/C (second compound 0.316 µM, first compound 0.001 µM): 44.7%; viability, T/C (second compound 1 µM, first compound 0.000316 µM): 84.5%; viability, T/C (second compound 1 µM, first compound 0.001 µM): 39.5%; viability, T/C [10]: 0.84%; viability, T/C (second compound 3.16 µM, first compound 0.000316 µM): 78.5%; viability, T/C (second compound 3.16 µM, first compound 0.001 µM): 31.5%; viability, T/C [13]: 1.91%; viability, T/C [14]: 0.54%; viability, T/C (second compound 10 µM, first compound 0.000316 µM): 67.6%; viability, T/C (second compound 10 µM, first compound 0.001 µM): 28%; viability, T/C [17]: 1.67%; viability, T/C [18]: 0.4%
Nc1ncn(C2CC(O)C(CO)O2)c(=O)n1 (stereo not given) + NC1CCC(NC2CC2c2ccccc2)CC1	177	279	218	195	224	89.7	88.5	88.5	60.7	93.1	95.7	90.7	72.9	89.2	89.2	62.4	78.4	66.6	79.9	68.4	viability, T/C [21]: 40%; viability, T/C [22]: 36.7%; viability, T/C [23]: 47.3%; viability, T/C [24]: 40.5%; viability, T/C [10]: 89.7%; viability, T/C [25]: 46.4%; viability, T/C [26]: 34.9%; viability, T/C [13]: 82.5%; viability, T/C [14]: 88.4%; viability, T/C [27]: 38.1%; viability, T/C [28]: 29.3%; viability, T/C [17]: 78%; viability, T/C [18]: 78.2%; viability, T/C [29]: 42.2%; viability, T/C [30]: 31.9%
O=C(c1cc(Cc2n[nH]c(=O)c3ccccc23)ccc1F)N1CCN(C(=O)C2CC2)CC1 + NC1CCC(NC2CC2c2ccccc2)CC1	> 10000	> 10000	> 10000	> 10000	> 10000			85.1	82.7			92.3	93.3		82.3	87.4	79.8	85.3	71	73.7	viability, T/C [21]: 89.1%; viability, T/C [22]: 85.8%; viability, T/C (second compound 0.1 µM, first compound 3.16 µM): 84.7%; viability, T/C (second compound 0.1 µM, first compound 10 µM): 82.1%; viability, T/C [23]: 94.4%; viability, T/C [24]: 94.4%; viability, T/C (second compound 0.316 µM, first compound 3.16 µM): 85%; viability, T/C (second compound 0.316 µM, first compound 10 µM): 84.4%; viability, T/C [25]: 91.1%; viability, T/C [26]: 87.4%; viability, T/C (second compound 1 µM, first compound 3.16 µM): 79.5%; viability, T/C (second compound 1 µM, first compound 10 µM): 75.9%; viability, T/C [27]: 69.5%; viability, T/C [28]: 85.5%; viability, T/C (second compound 3.16 µM, first compound 3.16 µM): 79.2%; viability, T/C (second compound 3.16 µM, first compound 10 µM): 77.1%; viability, T/C [29]: 74.4%; viability, T/C [30]: 74.1%; viability, T/C (second compound 10 µM, first compound 3.16 µM): 62.5%; viability, T/C (second compound 10 µM, first compound 10 µM): 66.8%
